This is an account of results in US10487082B2, “S1PR2 antagonists and uses therefor” (DALHOUSIE UNIVERSITY, priority 2015, dated 2019).

Assay [1] relates to Fzd4−/− mice. The assay can be described thus: Retinal vasculature in Fzd4−/− mouse model of FEVR (flat-mounted retinas, iso-lectin B4 staining, confocal microscopy). The assay is classed as in vivo. Conditions: 0.5 mg/kg intraperitoneally every second day from P7 to P25, retinas at P25. How it is done:
FIG. 7 illustrates that treatment of Fzd4^−/− mice with the S1PR2 antagonist JTE-013 ameliorates the FEVR phenotype. Fzd4^−/− mice were injected with 0.5 mg/kg JTE-013 intraperitoneally every second day from P7 to P25. Retinas were flat mounted at P25 and the vasculature visualized by confocal microscopy subsequent to staining with iso-lectin B4 AlexaFluor 594.
Fzd4^−/− mice were injected with 0.5 mg/kg JTE-013 intraperitoneally every second day from P7 to P25. Using standard protocols, retinas were flat mounted at P25 and the vasculature visualized by confocal microscopy subsequent to staining with iso-lectin B4 AlexaFluor 594. (Vascular development in the retina and inner ear: control by Norrin and Frizzled-4, a high-affinity ligand-receptor pair. Xu Q, Wang Y, Dabdoub A, Smallwood P M, Williams J, Woods C, Kelley M W, Jiang L, Tasman W, Zhang K, Nathans J. Cell 116, 883-95 (2004).)

For assay [2], the target named is S1PR2 (Homo sapiens, UniProt O95136). As to conditions: cited from earlier work.

Entries after “also recorded” stand apart in the source; their conditions may differ.

Sequence of S1PR2 (O95136 whole entry): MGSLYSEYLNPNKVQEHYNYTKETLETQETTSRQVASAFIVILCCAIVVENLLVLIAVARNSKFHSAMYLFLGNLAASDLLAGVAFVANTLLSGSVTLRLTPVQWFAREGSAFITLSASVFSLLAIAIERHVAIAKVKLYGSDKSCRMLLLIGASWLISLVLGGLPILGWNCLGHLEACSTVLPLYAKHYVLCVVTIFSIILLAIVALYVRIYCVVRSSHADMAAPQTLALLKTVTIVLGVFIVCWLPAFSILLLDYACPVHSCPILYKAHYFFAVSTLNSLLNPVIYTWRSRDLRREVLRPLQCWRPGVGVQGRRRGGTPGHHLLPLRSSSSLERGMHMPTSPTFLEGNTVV

Turning to `Cc1nn(C)c2nc(NNC(=O)Nc3cc(Cl)nc(Cl)c3)cc(C(C)C)c12` [JTE-013, 1-(2,6-dichloro-4-pyridyl)-3-[(4-isopropyl-1,3-dimethyl-pyrazolo[3,4-b]pyridin-6-yl)amino]urea], the “retinal vascular patterning / FEVR retinal vascularization defects” value in assay [1] is recorded as “substantial restoration of normal retinal vascular patterning; also recorded: able to ameliorate FEVR retinal vascularization defects”. In assay [2], the “affinity for S1PR2” value is on record as 18 nM and the “specificity for S1PR2 versus other S1PRs” value is reported as 100 fold.
